Experimental data as given in US11654203B2.

Tests used:
[1] = test system: human colorectal cancer cells (HCT15); assay: NanoSPECT/CT imaging of colorectal cancer animal model; format: in vivo, BALB/c nude mouse; settings: caudal vein, 25 mCi/kg, imaged at 2, 4, 24, 48 h
Description: (1) Each BALB/c nude mouse that was 8 weeks old was subjected to subcutaneous injection of human colorectal cancer cells (HCT15, 1*10^6 cells) on a right hind leg, grew for 10-14 d, and started to be dosed with the drug when a cell tumor grew to a size of 50-100 mm^3.
(3) NanoSPECT/CT image analysis was carried out at 2nd h, 4th h, 24th h and 48th h after animal dosage (brand: Mediso).
(4) Obtained images were subjected to image recombination and outputting by VivoQuamt software.

[2] = test system: human colorectal cancer cells (HCT15); assay: Colorectal cancer animal bio-distribution (gamma counter); format: in vivo, BALB/c nude mouse; settings: 25 mCi/kg, n=3

- tumor absorbability ([2]; 2nd h after caudal vein dosage): 0.88 % ID/g
- gathering degree at the tumor hypoxia position ([2]; 24th h after caudal vein dosage): 1.08 % ID/g
Compound: O=C([O-])CN1CCN(CC(=O)[O-])CCN(CC(=O)[O-])CCN(CC(=O)[O-])CC1.[111In+3] [^111In-DOTA]
- drug gathering at tumor hypoxia position, nanoSPECT/CT [1]: no obvious drug gathering phenomenon
